Source: patent US20240150340A1, “CDK Inhibitors And Their Use As Pharmaceuticals” (Prelude Therapeutics Incorporated, priority 2022, published 2024)

Assays:
CDK4/Cyclin D1 = molecular target: T1, CDK4/Cyclin D1 (Homo sapiens, UniProt P11802); test: CDK4/CyclinD1 Enzymatic Activity Assay (TR-FRET); assay type: biochemical; conditions: ATP 2 mM final, read-out: CDK4_D1 IC50
T1 construct: purchased ProQinase; host or cells: insect cell
Experimental: CDK4/CyclinD1 Enzymatic Activity Assay
The inhibitory activity of compounds was evaluated in vitro using TR-FRET assay with white 384-well low volume microplate (Greiner Bio-One). CDK4/Cyclin D1 catalyzed phosphorylation of peptide in the presence and absence of compounds was measured and used in IC50 determination. Recombinant protein complex CDK4/Cyclin D1, expressed from insect cell, was purchased from ProQinase. Testing compounds were dissolved in DMSO at 1 mM and tested in 9-dose IC50 mode. The reaction mixture was prepared by mixing CDK4/CyclinD1 (1 nM final), ULight-4E-BP1 (100 nM final, Perkinelmer, TRF0128-D), and ATP (2 mM final) in assay buffer (20 mM of HEPES pH 7.4, 1 mM of EGTA, 0.05% BSA, 0.005% Tween 20, and 1 mM TCEP). The compound of interest in DMSO was added to each well in 3-fold serial dilution by the dispenser (TECAN D300E) to make a 9.9 μL of reaction mixture. After 20 minutes preincubation at room temperature, 0.1 μL MgCl2 (10 mM final) was added to initiate the reaction. Following a 45-minute incubation at 37° C., the reaction was stopped by addition of 2 μL of quenching buffer consisting of Lance detection buffer (Perkinelmer CR97-100C), LANCE Ultra Europium-anti-P-4E-BP1 (Perkinelmer, TRF0216-D), EDTA, and incubated at room temperature for additional 60 minutes in dark. The reaction signal was measured by Envision multimode plate reader (PerkinElmer, 2102-0010). IC50 values were determined by fitting the data to the standard 4 parameters with Hill Slope using GraphPad Prism software.

CDK2/Cyclin E2 = molecular target: T2, CDK2/Cyclin E2 (Homo sapiens, UniProt P24941); test: CDK2/CyclinE2 Enzymatic Activity Assay (TR-FRET); assay type: biochemical; conditions: ATP 1 mM final, read-out: CDK2_E1 IC50
T2 construct: Recombinant protein complex CDK2/Cyclin E2, expressed from insect cell, was purchased from ProQinase
How it was run: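 Recombinant insect-cell CDK2/Cyclin E2 (1 nM) phosphorylated ULight-4E-BP1 (50 nM) with 1 mM ATP in HEPES pH 7.4 buffer, after 20 min compound preincubation; MgCl2 (10 mM) started the 45 min reaction at 37° C. Europium anti-phospho-4E-BP1 TR-FRET read; 9-dose IC50 by 4-parameter fit.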

OVCAR3 p-RB = test: pRB ICW Assay in OVCAR3 Cells; assay type: cell-based; conditions: Homo sapiens, OVCAR-3, incubated with compound for 2 hours
How it was run: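 In-Cell Western on OVCAR3: phospho-RB antibody signal with DRAQ5 counterstain read at 700 and 800 nm after fixation. Compounds were applied for 2 h at 37° C. as 9-point ½-log dilutions in duplicate; 10 μM reference compound defined full inhibition.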

T1 sequence (P11802 whole entry): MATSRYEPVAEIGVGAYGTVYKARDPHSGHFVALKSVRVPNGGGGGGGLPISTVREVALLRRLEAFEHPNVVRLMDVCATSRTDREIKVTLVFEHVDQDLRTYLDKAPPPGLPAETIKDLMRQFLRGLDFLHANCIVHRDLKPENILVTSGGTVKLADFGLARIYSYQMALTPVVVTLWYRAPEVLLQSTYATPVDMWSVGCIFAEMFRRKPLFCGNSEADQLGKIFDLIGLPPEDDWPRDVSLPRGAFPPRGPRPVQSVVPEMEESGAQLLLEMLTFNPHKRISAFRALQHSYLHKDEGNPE
T1 sequence (P24385 whole entry partner): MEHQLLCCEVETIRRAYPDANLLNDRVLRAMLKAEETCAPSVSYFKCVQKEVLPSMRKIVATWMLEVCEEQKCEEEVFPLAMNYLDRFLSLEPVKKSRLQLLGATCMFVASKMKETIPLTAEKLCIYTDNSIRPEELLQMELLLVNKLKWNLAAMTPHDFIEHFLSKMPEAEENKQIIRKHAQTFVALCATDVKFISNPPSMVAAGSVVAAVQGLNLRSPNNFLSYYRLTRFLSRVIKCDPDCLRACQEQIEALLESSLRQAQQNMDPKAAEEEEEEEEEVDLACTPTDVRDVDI

Question: `Cn1cnc(S(=O)(=O)N2CCC(Nc3ncc(C(F)(F)F)c(-c4ncc(CC(C)(C)O)s4)n3)CC2)c1` [Example 3, 2-Methyl-1-(2-(2-((1-((1-methyl-1H-imidazol-4-yl)sulfonyl)piperidin-4-yl)amino)-5-(trifluoromethyl)pyrimidin-4-yl)thiazol-5-yl)propan-2-ol] was tested. Which IC50 (CDK4/Cyclin D1) did it give?
Answer: ≤ 100 nM

Question: And the IC50 (CDK2/Cyclin E2)?
Answer: ≤ 100 nM

Question: And the IC50 (OVCAR3 p-RB)?
Answer: ≤ 100 nM

Question: How did the IC50 (CDK4/Cyclin D1) turn out when `Cc1sc(-c2nc(N[C@@H]3CCN(S(=O)(=O)c4cnn(C)c4)C[C@H]3F)ncc2C(F)(F)F)cc1C#N` [Example 4, 5-(2-(((3R,4R)-3-fluoro-1-((1-methyl-1H-pyrazol-4-yl)sulfonyl)piperidin-4-yl)amino)-5-(trifluoromethyl)pyrimidin-4-yl)-2-methylthiophene-3-carbonitrile] was run?
Answer: ≤ 100 nM

Question: And the IC50 (CDK2/Cyclin E2)?
Answer: ≤ 100 nM

Question: And the IC50 (OVCAR3 p-RB)?
Answer: 100 to 500 nM

Question: Which results are given for `Cc1sc(-c2nc(N[C@@H]3CCN(S(=O)(=O)c4cn(C)cn4)C[C@H]3F)ncc2C(F)(F)F)cc1C#N` [Example 5, 5-(2-(((3R,4R)-3-fluoro-1-((1-methyl-1H-imidazol-4-yl)sulfonyl)piperidin-4-yl)amino)-5-(trifluoromethyl)pyrimidin-4-yl)-2-methylthiophene-3-carbonitrile]?
Answer: IC50 (CDK4/Cyclin D1): ≤ 100 nM; IC50 (CDK2/Cyclin E2): ≤ 100 nM; IC50 (OVCAR3 p-RB): 100 to 500 nM

Question: What does the source list for `CS(=O)(=O)N1CC[C@@H](Nc2ncc(C(F)(F)F)c(-c3cc(C(N)=O)cs3)n2)[C@H](F)C1` [Example 6, 5-(2-(((3R,4R)-3-fluoro-1-(methylsulfonyl)piperidin-4-yl)amino)-5-(trifluoromethyl)pyrimidin-4-yl)thiophene-3-carboxamide]?
Answer: IC50 (CDK4/Cyclin D1): ≤ 100 nM; IC50 (CDK2/Cyclin E2): ≤ 100 nM; IC50 (OVCAR3 p-RB): ≤ 100 nM

Question: `CS(=O)(=O)N1CC[C@H](Nc2ncc(C(F)(F)F)c(-c3cc(C(N)=O)cs3)n2)[C@H](F)C1` [Example 7, 5-(2-(((3R,4S)-3-fluoro-1-(methylsulfonyl)piperidin-4-yl)amino)-5-(trifluoromethyl)pyrimidin-4-yl)thiophene-3-carboxamide] was tested. Which IC50 (CDK4/Cyclin D1) did it give?
Answer: ≤ 100 nM

Question: What about the IC50 (CDK2/Cyclin E2) of the same compound?
Answer: ≤ 100 nM

Question: What about the IC50 (OVCAR3 p-RB) of the same compound?
Answer: ≤ 100 nM

Question: `Cc1sc(-c2nc(N[C@@H]3CCN(S(C)(=O)=O)C[C@H]3F)ncc2C(F)(F)F)cc1C(N)=O` [Example 8, 5-(2-(((3R,4R)-3-fluoro-1-(methylsulfonyl)piperidin-4-yl)amino)-5-(trifluoromethyl)pyrimidin-4-yl)-2-methylthiophene-3-carboxamide] was tested. Which IC50 (CDK4/Cyclin D1) did it give?
Answer: ≤ 100 nM

Question: And the IC50 (CDK2/Cyclin E2)?
Answer: ≤ 100 nM

Question: What about the IC50 (OVCAR3 p-RB) of the same compound?
Answer: ≤ 100 nM

Question: Which results are given for `Cc1sc(-c2nc(N[C@H]3CCN(S(C)(=O)=O)C[C@H]3F)ncc2C(F)(F)F)cc1C(N)=O` [Example 9, 5-(2-(((3R,4S)-3-fluoro-1-(methylsulfonyl)piperidin-4-yl)amino)-5-(trifluoromethyl)pyrimidin-4-yl)-2-methylthiophene-3-carboxamide]?
Answer: IC50 (CDK4/Cyclin D1): ≤ 100 nM; IC50 (CDK2/Cyclin E2): ≤ 100 nM; IC50 (OVCAR3 p-RB): ≤ 100 nM

Question: For `C[C@@H]1CN(S(C)(=O)=O)CC[C@@H]1Nc1ncc(C(F)(F)F)c(-c2cc(C(N)=O)cs2)n1` [Example 10, 5-(2-(((3R,4S)-3-methyl-1-(methylsulfonyl)piperidin-4-yl)amino)-5-(trifluoromethyl)pyrimidin-4-yl)thiophene-3-carboxamide], which IC50 (CDK4/Cyclin D1) is on record?
Answer: 100 to 500 nM

Question: What about the IC50 (CDK2/Cyclin E2) of the same compound?
Answer: ≤ 100 nM

Question: What about the IC50 (OVCAR3 p-RB) of the same compound?
Answer: 100 to 500 nM

Question: Which IC50 (CDK4/Cyclin D1) does the source give for `Cn1cc(S(=O)(=O)N2CC[C@H](Nc3ncc(C(F)(F)F)c(-c4cc(C(N)=O)cs4)n3)[C@H](F)C2)cn1` [Example 11, 5-(2-(((3R,4S)-3-fluoro-1-((1-methyl-1H-pyrazol-4-yl)sulfonyl)piperidin-4-yl)amino)-5-(trifluoromethyl)pyrimidin-4-yl)thiophene-3-carboxamide] here?
Answer: ≤ 100 nM

Question: And the IC50 (CDK2/Cyclin E2)?
Answer: ≤ 100 nM

Question: What about the IC50 (OVCAR3 p-RB) of the same compound?
Answer: ≤ 100 nM

Question: Which IC50 (CDK4/Cyclin D1) does the source give for `Cn1cnc(S(=O)(=O)N2CC[C@H](Nc3ncc(C(F)(F)F)c(-c4cc(C(N)=O)cs4)n3)[C@H](F)C2)c1` [Example 12, 5-(2-(((3R,4S)-3-fluoro-1-((1-methyl-1H-imidazol-4-yl)sulfonyl)piperidin-4-yl)amino)-5-(trifluoromethyl)pyrimidin-4-yl)thiophene-3-carboxamide] here?
Answer: ≤ 100 nM

Question: What about the IC50 (CDK2/Cyclin E2) of the same compound?
Answer: ≤ 100 nM

Question: And the IC50 (OVCAR3 p-RB)?
Answer: ≤ 100 nM

Question: `Cn1cc(S(=O)(=O)N2CC[C@@H](Nc3ncc(C(F)(F)F)c(-c4cc(C(N)=O)cs4)n3)[C@H](F)C2)cn1` [Example 13, 5-(2-(((3R,4R)-3-fluoro-1-((1-methyl-1H-pyrazol-4-yl)sulfonyl)piperidin-4-yl)amino)-5-(trifluoromethyl)pyrimidin-4-yl)thiophene-3-carboxamide] was tested. Which IC50 (CDK4/Cyclin D1) did it give?
Answer: ≤ 100 nM

Question: What about the IC50 (CDK2/Cyclin E2) of the same compound?
Answer: ≤ 100 nM

Question: What about the IC50 (OVCAR3 p-RB) of the same compound?
Answer: ≤ 100 nM

Question: Which IC50 (CDK4/Cyclin D1) does the source give for `Cn1cnc(S(=O)(=O)N2CC[C@@H](Nc3ncc(C(F)(F)F)c(-c4cc(C(N)=O)cs4)n3)[C@H](F)C2)c1` [Example 14, 5-(2-(((3R,4R)-3-fluoro-1-((1-methyl-1H-imidazol-4-yl)sulfonyl)piperidin-4-yl)amino)-5-(trifluoromethyl)pyrimidin-4-yl)thiophene-3-carboxamide] here?
Answer: ≤ 100 nM

Question: What about the IC50 (CDK2/Cyclin E2) of the same compound?
Answer: ≤ 100 nM

Question: And the IC50 (OVCAR3 p-RB)?
Answer: 100 to 500 nM

Question: Which results are given for `Cc1sc(-c2nc(N[C@H]3CCN(S(=O)(=O)c4cnn(C)c4)C[C@H]3F)ncc2C(F)(F)F)cc1C(N)=O` [Example 15, 5-(2-(((3R,4S)-3-fluoro-1-((1-methyl-1H-pyrazol-4-yl)sulfonyl)piperidin-4-yl)amino)-5-(trifluoromethyl)pyrimidin-4-yl)-2-methylthiophene-3-carboxamide]?
Answer: IC50 (CDK4/Cyclin D1): ≤ 100 nM; IC50 (CDK2/Cyclin E2): ≤ 100 nM; IC50 (OVCAR3 p-RB): ≤ 100 nM

Question: How did the IC50 (CDK4/Cyclin D1) turn out when `Cc1sc(-c2nc(N[C@H]3CCN(S(=O)(=O)c4cn(C)cn4)C[C@H]3F)ncc2C(F)(F)F)cc1C(N)=O` [Example 16, 5-(2-(((3R,4S)-3-fluoro-1-((1-methyl-1H-imidazol-4-yl)sulfonyl)piperidin-4-yl)amino)-5-(trifluoromethyl)pyrimidin-4-yl)-2-methylthiophene-3-carboxamide] was run?
Answer: ≤ 100 nM

Question: What about the IC50 (CDK2/Cyclin E2) of the same compound?
Answer: ≤ 100 nM

Question: What about the IC50 (OVCAR3 p-RB) of the same compound?
Answer: ≤ 100 nM

Question: How did the IC50 (CDK4/Cyclin D1) turn out when `Cc1sc(-c2nc(N[C@@H]3CCN(S(=O)(=O)c4cnn(C)c4)C[C@H]3F)ncc2C(F)(F)F)cc1C(N)=O` [Example 17, 5-(2-(((3R,4R)-3-fluoro-1-((1-methyl-1H-pyrazol-4-yl)sulfonyl)piperidin-4-yl)amino)-5-(trifluoromethyl)pyrimidin-4-yl)-2-methylthiophene-3-carboxamide] was run?
Answer: ≤ 100 nM

Question: And the IC50 (CDK2/Cyclin E2)?
Answer: ≤ 100 nM

Question: And the IC50 (OVCAR3 p-RB)?
Answer: ≤ 100 nM

Question: Which IC50 (CDK4/Cyclin D1) does the source give for `Cc1sc(-c2nc(N[C@@H]3CCN(S(=O)(=O)c4cn(C)cn4)C[C@H]3F)ncc2C(F)(F)F)cc1C(N)=O` [Example 18, 5-(2-(((3R,4R)-3-fluoro-1-((1-methyl-1H-imidazol-4-yl)sulfonyl)piperidin-4-yl)amino)-5-(trifluoromethyl)pyrimidin-4-yl)-2-methylthiophene-3-carboxamide] here?
Answer: ≤ 100 nM

Question: And the IC50 (CDK2/Cyclin E2)?
Answer: ≤ 100 nM

Question: What about the IC50 (OVCAR3 p-RB) of the same compound?
Answer: ≤ 100 nM

Question: Which IC50 (CDK4/Cyclin D1) does the source give for `C[C@@H]1CN(S(=O)(=O)c2cnn(C)c2)CC[C@@H]1Nc1ncc(C(F)(F)F)c(-c2cc(C(N)=O)cs2)n1` [Example 19, 5-(2-(((3R,4S)-3-methyl-1-((1-methyl-1H-pyrazol-4-yl)sulfonyl)piperidin-4-yl)amino)-5-(trifluoromethyl)pyrimidin-4-yl)thiophene-3-carboxamide] here?
Answer: ≤ 100 nM

Question: And the IC50 (CDK2/Cyclin E2)?
Answer: ≤ 100 nM

Question: And the IC50 (OVCAR3 p-RB)?
Answer: ≤ 100 nM

Question: With `C[C@@H]1CN(S(=O)(=O)c2cn(C)cn2)CC[C@@H]1Nc1ncc(C(F)(F)F)c(-c2cc(C(N)=O)cs2)n1` [Example 20, 5-(2-(((3R,4S)-3-methyl-1-((1-methyl-1H-imidazol-4-yl)sulfonyl)piperidin-4-yl)amino)-5-(trifluoromethyl)pyrimidin-4-yl)thiophene-3-carboxamide] as the compound, how does the IC50 (CDK4/Cyclin D1) read?
Answer: ≤ 100 nM

Question: What about the IC50 (CDK2/Cyclin E2) of the same compound?
Answer: ≤ 100 nM

Question: What about the IC50 (OVCAR3 p-RB) of the same compound?
Answer: 100 to 500 nM

Question: What does the source list for `C[C@@H]1CN(S(=O)(=O)c2c[nH]cn2)CC[C@@H]1Nc1ncc(C(F)(F)F)c(-c2cc(C(N)=O)cs2)n1` [Example 21, 5-(2-(((3R,4S)-1-((1H-imidazol-4-yl)sulfonyl)-3-methylpiperidin-4-yl)amino)-5-(trifluoromethyl)pyrimidin-4-yl)thiophene-3-carboxamide]?
Answer: IC50 (CDK4/Cyclin D1): 100 to 500 nM; IC50 (CDK2/Cyclin E2): ≤ 100 nM; IC50 (OVCAR3 p-RB): 100 to 500 nM

Question: Which IC50 (CDK4/Cyclin D1) does the source give for `C[C@@H]1CN(S(=O)(=O)c2cnc3cccnn23)CC[C@@H]1Nc1ncc(C(F)(F)F)c(-c2cc(C(N)=O)cs2)n1` [Example 22, 5-(2-(((3R,4S)-1-(imidazo[1,2-b]pyridazin-3-ylsulfonyl)-3-methylpiperidin-4-yl)amino)-5-(trifluoromethyl)pyrimidin-4-yl)thiophene-3-carboxamide] here?
Answer: 100 to 500 nM

Question: And the IC50 (CDK2/Cyclin E2)?
Answer: ≤ 100 nM

Question: What about the IC50 (OVCAR3 p-RB) of the same compound?
Answer: ≤ 100 nM
